Data as given in patent US12174172B2, “Method for evaluating the efficacy of a composition in reducing the effects of cancer therapeutics on skin” (Johnson & Johnson Consumer Inc., priority 2019, dated 2024).
Entries after “also recorded” stand apart in the source; their conditions may differ.

Tests used:
[1] = test system: Human epidermal keratinocytes cells (HPEKs), 3D micro-epidermis; assay: 3D micro-epidermis model (EpiScreen): epidermis size, toxicity, dose response, classification; type: cell-based;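 note: keratinocytes on micropatterned discs in high-calcium medium, drug exposure for three days, then fixation and confocal high-content imaging of actin, nuclei and a marker, vehicle DMSO-matched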
Keratinocytes = assay: WST-8 viability and proliferation assay; type: cell-based, human; settings: keratinocytes exposed for 24 h, relative to vehicle (FIG. 5a)
Text: The Water-Soluble Tetrazolium Salts (WST-8) Colorimetric Cell Proliferation Kit (Promokine, Heidelberg, Germany) provides a rapid and sensitive way to quantify proliferation and cell viability. Cell proliferation causes an increase in the amount of formazan dye formed that can be quantified by measuring the absorbance of the dye solution at […] using a microtiter plate reader (Perkin Elmer EnVision 2103 Multilabel Reader, Waltham, MA, USA). Cellular proliferation induces an increase in the activity of mitochondrial dehydrogenases, which cleaves the tetrazolium salt […] into formazan. 15,000 Keratinocytes per well were seeded on 96-well plate, once confluence reach, drug concentration used were +/−½ log of the plasmatic concentration. 10 μl of Colorimetric Cell Viability Kit is added and completed with 360 μl of culture media, results were read after 4 h at 450 nm to determine cell viability. Results were obtained with 6 donors of keratinocytes in 2 experiments

[2] = test system: caspase-3 activity in keratinocytes; assay: Caspase-3 fluorometric assay (cell apoptosis); type: cell-based, human; settings: 2.59 nM and 25.89 nM, 24 h (FIG. 5b)
Text: The kit (biotium, Fremont, CA, USA) provides a homogenous assay system for fast and highly sensitive detection of caspase-3 activity by fluorescence in enzymatic reaction or mammalian cells. The fluorogenic substrate (Ac-DEVD) 2-R110 contains two DEVD (Asp-Glu-Val-Asp) tetrapeptides and is completely hydrolyzed by the enzyme in two successive steps. Cleavage of the first DEVD peptide results in the monopeptide Ac-DEVD-R110 intermediate, which has absorption and emission wavelengths similar to those of R110 (Ex/Em=496/520 nm) but has only about 10% of the fluorescence of the latter. Hydrolysis of the second DEVD peptide releases the dye R110, leading to a substantial fluorescence increase. Keratinocytes were plated at 15,000 cells per well in 100 μl of medium in a 96-well black microplate. They were allowed to attach and grow overnight in a 37° C., 5% CO2 incubator. They were then treated for 20 h with a 1:2 dilution series of staurosporine, a caspase 3 inducer. Imaging was performed on Perkin Elmer EnVision 2103 Multilabel Reader using an excitation wavelength of 490 nm and emission wavelength of 535 nm. Cells were incubated at room temperature for 15 min, protected from light. Results were obtained with 6 donors of keratinocytes in 2 experiments

With `CN(C)C/C=C/C(=O)Nc1cc2c(Nc3ccc(F)c(Cl)c3)ncnc2cc1O[C@H]1CCOC1` [Afatinib] the “Toxicity at 1 μM” value ([1]; 1 μM, micro-epidermis) was “Yes”, the “effect on desmoglein-1, involucrin and filaggrin expression (dose dependence)” value ([1]; 3, 10, 30 nM) was “increases; also recorded: dose-dependent manner” and the Epidermis size ([1]; Table 1 summary of drug effect on epidermis) was “Decreased”. The Classification ([1]; Table 1 summary, pro-differentiation / pro-proliferation) was “Pro-differentiation”, the Epidermis size ([1]; Table 3, 30 nM (EGFRi) or 100 nM (VEGFRi), 3 days, vs untreated control, superscript = significance footnote) was “Decreased^2” and the Classification ([1]; Table 3, pro-proliferation or pro-differentiation) was “Pro-”. The Dose in response ([1]; Table 3, variation of protein expression at 3, 10, 30 nM (EGFRi) or 3, 10, 30, 100 nM (VEGFRi), markers in brackets) was “Yes”, the “toxicity at higher drug concentration” value ([1]; above 1 μM, micro-epidermis) was “toxic leading to epidermal necrosis” and the “micro-epidermis size / epidermal volume” value ([1]; concentration (afatinib 3-30 nM; pan-kinase inhibitors up to 100 nM)) was “significantly decreased; also recorded: significantly reduced”. For the same compound, the Dose/response ([1]; supplementary table, per run (1st or 2nd Run), markers in brackets) was “Yes (DSG, IVL,”, the cell viability (Keratinocytes) was “decreases; also recorded: significant effect” and the cell apoptosis [2] was “does not induce apoptosis; also recorded: did not show any effect; also recorded: not affected”.
